Test results: patent US5216165A, “N-substituted aminoquinolines as analgesic agents” (American Home Products Corporation, priority 1992, dated 1993)
Where a name gives a salt, the structure may show the parent alone. Read-outs that look alike come from different tables or passages of the source.

Assays:
[1] = system: bradykinin-induced writhing response; test: inhibition of the writhing response induced in mice by exogenous administration of bradykinin; assay type: in vivo, mice (male CD-1)
BK2 receptor = target: T1, BK2 receptor (Cavia porcellus, UniProt O70526); test: competition with tritiated bradykinin (3H-BK) for BK2 receptor sites in guinea pig ileum; assay type: binding; conditions: for Activity (reference compounds, 3H-BK binding): screened at 100 μM
T1 construct: The distal portion of the ileum is removed and placed in ice cold homogenization buffer; from tissue; host or cells: distal ileum of adult male Hartley strain guinea pig, washed 50,000×g pellet of homogenate
T1 sequence (O70526 1-372): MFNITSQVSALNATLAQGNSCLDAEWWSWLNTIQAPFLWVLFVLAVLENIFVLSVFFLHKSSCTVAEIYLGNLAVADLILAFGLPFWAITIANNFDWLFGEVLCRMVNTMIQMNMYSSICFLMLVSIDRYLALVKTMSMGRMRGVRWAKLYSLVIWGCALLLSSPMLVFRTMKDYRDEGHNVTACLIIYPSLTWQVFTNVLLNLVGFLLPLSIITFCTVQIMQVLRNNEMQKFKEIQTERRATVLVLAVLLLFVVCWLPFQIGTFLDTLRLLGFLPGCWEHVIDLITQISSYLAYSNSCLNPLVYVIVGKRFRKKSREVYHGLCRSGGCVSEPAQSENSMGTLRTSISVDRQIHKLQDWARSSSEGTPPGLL
Protocol: This assay is employed to identify compounds which compete specifically with tritiated bradykinin (^3 H-BK) for BK2 receptor sites in guinea pig ileum.
The assay is carried out as follows:
A 350-500 g adult male Hartley strain guinea pig is euthanized by stunning followed by decapitation. The distal portion of the ileum is removed and placed in ice cold homogenization buffer [25 mM N-tris(hydroxymethyl)methyl-2-aminoethane sulfonic acid (TES) 1 mM 1,10-phenanthroline, adjusted to pH 6.8 with NH4 OH]. The contents of the ileal lumen are rinsed out with cold homogenization buffer. The tissue is cut into small pieces and homogenized in 20 volumes of homogenization buffer using a Brinkmann Polytron homogenizer equipped with a PTA 10 TS generator. The tissue is homogenized for 10 seconds, three times, at setting 5.
The homogenate is filtered through a surgical gauze sponge and centrifuged at 50,000×g for 20 minutes at 4° C. The supernatant fluid is discarded and the homogenization and centrifugation procedure is repeated. After discarding the supernatant fluid, the final pellet is resuspended in 40 volumes of assay buffer [25 mM TES, pH=6.8, 1 mM 1,10-phenanthroline, 1 mM dithiothreitol, 2 μM captopril, 140 μg/ml bacitracin and 0.1% bovine serum albumin (BSA)]. The homogenate is filtered once more through a surgical gauze sponge and kept on ice until use.
The assay is performed using only polypropylene pipet tips and polypropylene test tubes. Each tube receives 100 μl of 800 pM ^3 H-BK, 100 μl of the test compound solution or vehicle (TES assay buffer), and 100 μl of 25 mg/ml tissue homogenate in a total volume of 1 ml. The final concentration of ^3 H-BK is 80 pM. The final tissue concentration is 2.5 mg/ml. Compounds are screened at 100 μM. Nonspecific binding is determined in the presence of 1 μM unlabeled bradykinin. All determinations are made in triplicate. Three 100 μl aliquots of the 800 pM 3 H-BK working solution are added directly to scintillation vials to determine the total added radioactivity.
The tubes are incubated for 90 minutes at 25° C. while being gently agitated on an orbital shaker. Bound ligand is separated from free ligand, using Whatman GF/B glass fiber filters (pretreated with 0.1% aqueous polyethyleneimine made neutral with HCl). A Brandel receptor binding harvester is used. Assay tubes and glass fiber filters are rinsed three times with 3 ml of cold physiological saline.
The filter discs are transferred to 20 ml scintillation vials. Ten ml of aqueous sample LSC cocktail (Aquassure, New England Nuclear) is added to each vial. After capping, the vials are agitated for 5 minutes on an orbital shaker. The samples are counted for ten minutes in a refrigerated liquid scintillation counter.
The following values are obtained:
Bx Total binding in the presence of the test compound
C Control specific binding. C=Bt -Bns
D Specific binding in the presence of the test compound. D=Bx -Bns
Percent of control: D/C×100
Percent Inhibition: (1-D/C)×100
After calculation of Percent of Control for each dilution, the values are analyzed and the IC50 with its 95% confidence limits is determined on a Hewlett Packard 9816 computer using the program "PS-NONLIN" (generalizednon-linear regression with inverse prediction and graphics).

[2] = guinea pig ileum homogenate, 80 pM 3H-BK, 90 min, 25° C., pH 6.8, read-out: IC50
[3] = 30 mg/kg i.p., bradykinin 0.5 mg/kg i.p. after PGE2
[4] = bradykinin 0.5 mg/kg i.p. after PGE2
[5] = guinea pig ileum homogenate, 80 pM 3H-BK

Molecule: CC(=O)Nc1ccc(O)cc1 [Acetaminophen, reference compound]
- % inhibition of writhing ([1]; at 300 mg/kg p.o. (reference compound acetaminophen)): 20%

Molecule: CCCCN1CCC(NCc2ccc(Nc3ccnc4cc(Cl)ccc34)cc2)CC1 [Example 1, N-[4-[[(1-Butyl-4-piperidinyl)amino]methyl]phenyl]-7-chloro-4-quinolinamine]
- IC50 (BK2 receptor; [2]): 8.4 µM
- % Inhibition at 30 mg/kg i.p. [1, 3]: 13.1%
- % Inhibition at 200 mg/kg p.o. [1, 4]: 7.1%

Molecule: CCCCN1CCC(N(Cc2ccc(Nc3ccnc4cc(Cl)ccc34)cc2)C(C)=O)CC1 [Example 2, N-(1-Butyl-4-piperidinyl)-N-[[4-[(7-chloro-4-quinolinyl)amino]phenyl]methyl]acetamide]
- IC50 (BK2 receptor; [2]): 6 µM
- % Inhibition at 30 mg/kg i.p. [1, 3]: 51.0%
- % Inhibition at 200 mg/kg p.o. [1, 4]: 26.0%

Molecule: CCCCN1CCC(N(Cc2ccc(Nc3ccnc4ccccc34)cc2)C(C)=O)CC1 [Example 3, N-(1-Butyl-4-piperidinyl)-N-[[4-(4-quinolinylamino)phenyl]methyl]acetamide]
- IC50 (BK2 receptor; [2]): 10.8 µM

Molecule: CCCCN1CCC(N(Cc2ccc(Nc3ccnc4cc(Cl)ccc34)cc2)C(=O)c2ccccc2)CC1 [Example 4, N-(1-Butyl-4-piperidinyl)-N-[[4-[7-chloro-4-quinolinyl)amino]phenyl]methyl]benzamide, hydrochloride]
- IC50 (BK2 receptor; [2]): 2 µM
- % Inhibition at 30 mg/kg i.p. [1, 3]: 40.0%

Molecule: CCCCN1CCC(N(Cc2ccc(Nc3ccnc4cc(Cl)ccc34)cc2)C(=O)CCc2ccccc2)CC1.Cl [Example 5, N-(1-Butyl-4-piperidinyl)-N-[[4-[(7-chloro-4-quinolinyl)amino]phenyl]methyl]benzenepropanamide, hydrochloride]
- IC50 (BK2 receptor; [2]): 1.6 µM
- % Inhibition at 30 mg/kg i.p. [1, 3]: 85.0%
- % Inhibition at 200 mg/kg p.o. [1, 4]: 27.0%

Molecule: CCCCN1CCC(N(Cc2ccc(Nc3ccnc4cc(Cl)ccc34)cc2)C(=O)C(F)(F)C(F)(F)C(F)(F)F)CC1.Cl [Example 6, N-(1-Butyl-4-piperidinyl)-N-[[4-[(7-chloro-4-quinolinyl)amino]phenyl]-methyl]-2,2,3,3,4,4,4-heptafluorobutanamide, hydrochloride]
- IC50 (BK2 receptor): 4.3 µM
- % Inhibition at 30 mg/kg i.p. ([1]; mouse, in vivo): 68.0%

Molecule: CCCCN1CCC(N(Cc2ccc(Nc3ccnc4cc(Cl)ccc34)cc2)C(=O)C(F)(F)F)CC1.Cl [Example 7, N-(1-butyl-4-piperidinyl)-N-[[4-[(7-chloro-4-quinolinyl)amino]-phenyl]methyl]-2,2,2-trifluoroacetamide, hydrochloride]
- IC50 (BK2 receptor; [2]): 2.4 µM
- % Inhibition at 30 mg/kg i.p. [1, 3]: 44.0%

Molecule: CCCCN1CCC(N(Cc2ccc(Nc3ccnc4cc(Cl)ccc34)cc2)C(=O)CCC)CC1.Cl [Example 8, N-(1-Butyl-4-piperidinyl)-N-[[4-[(7-chloro-4-quinolinyl)-amino]phenyl]methyl]butanamide, hydrochloride]
- IC50 (BK2 receptor; [2]): 1.2 µM
- % Inhibition at 30 mg/kg i.p. [1, 3]: 80.0%
- % Inhibition at 200 mg/kg p.o. [1, 4]: 58.0%

Molecule: CCN(CC)C(=O)c1ccc(CN2CCC(NCc3ccc(Nc4ccnc5cc(Cl)ccc45)cc3)CC2)cc1.Cl [Example 9, 4-[[4-[[[4-[(7-Chloro-4-quinolinyl)amino]phenyl]methyl]amino]-1-piperidinyl]methyl]-N,N-diethylbenzamide, hydrochloride]
- IC50 (BK2 receptor; [2]): 0.77 µM
- % Inhibition at 30 mg/kg i.p. [1, 3]: 0.0%

Molecule: Clc1ccc2c(Nc3ccc(CNC4CCN(Cc5ccccc5)CC4)cc3)ccnc2c1 [Example 10, 7-Chloro-N-[4-[[[1-(phenylmethyl)-4-piperidinyl]amino]methyl]phenyl]-4-quinolinamine]
- IC50 (BK2 receptor; [2]): 4 µM
- % Inhibition at 30 mg/kg i.p. [1, 3]: 2.5%

Molecule: CCCC(=O)N(Cc1ccc(Nc2ccnc3cc(Cl)ccc23)cc1)C1CCN(Cc2ccc(C(=O)N(CC)CC)cc2)CC1 [Example 12, 4-[[4-[[[4-[(7-Chloro-4-quinolinyl)amino]phenyl]methyl]-(1-oxobutyl)amino]-1-piperidinyl]methyl]-N,N-diethylbenzamide, hydrochloride, 0.76 hydrate]
- IC50 (BK2 receptor; [2]): 2.7 µM
- % Inhibition at 30 mg/kg i.p. [1, 3]: 5%

Molecule: CCN(CC)C(=O)CCCCCN1CCC(NCc2ccc(Nc3ccnc4cc(Cl)ccc34)cc2)CC1 [Example 13, 4-[[[4-[(7-Chloro-4-quinolinyl)amino]phenyl]methyl]amino]-N,N-diethyl-1-piperidinehexanamide, tris(trifluoroacetate), 0.42 hydrate]
- IC50 (BK2 receptor; [2]): 3.9 µM
- % Inhibition at 30 mg/kg i.p. [1, 3]: 43%

Molecule: CCCC(=O)N(Cc1ccc(Nc2ccnc3cc(Cl)ccc23)cc1)C1CCN(CCCCCC(=O)N(CC)CC)CC1 [Example 14, 4-[[[4-[(7-Chloro-4-quinolinyl)amino]phenyl]methyl](1-oxobutyl)amino]-N,N-diethyl-1-piperidinehexanamide, 0.56 hydrate]
- IC50 (BK2 receptor; [2]): 5.5 µM
- % Inhibition at 30 mg/kg i.p. [1, 3]: 81%
- % Inhibition at 200 mg/kg p.o. [1, 4]: 46%

Molecule: O=C(c1ccccc1)N1CCC(NCc2ccc(Nc3ccnc4cc(Cl)ccc34)cc2)CC1 [Example 15, 1-Benzoyl-N-[[[4-[(7-chloro-4-quinolinyl)amino]phenyl]methyl]-4-piperidinanaminetrifluoroacetate (1:2), 1.03 hydrate]
- IC50 (BK2 receptor; [2]): 13.8 µM
- % Inhibition at 30 mg/kg i.p. [1, 3]: 43%

Molecule: CCCCCCCCCCCC(=O)N(Cc1ccc(Nc2ccnc3cc(Cl)ccc23)cc1)C1CCN(CCCCCC(=O)N(CC)CC)CC1.Cl [Example 16, 4-[[[4-[(7-Chloro-4-quinolinyl)amino]phenyl]methyl](1-oxododecyl)-amino]-N,N-diethyl-1-piperidinehexanamide, hydrochloride]
- IC50 (BK2 receptor; [2]): 3.8 µM
- % Inhibition at 30 mg/kg i.p. [1, 3]: 30%

Molecule: CC(C)Cc1ccc(C(C)C(=O)O)cc1 (centres unmarked) [Ibuprofen, reference compound]
- % inhibition of writhing ([1]; at 200 mg/kg p.o. (reference compound ibuprofen)): 43%

Molecule: CC(C(=O)O)c1cccc(C(=O)c2ccccc2)c1 (centres unmarked) [Ketoprofen, reference compound]
- % inhibition of writhing ([1]; mouse, in vivo, po, 100 mg/kg): 52%

Molecule: CN1CC[C@]23c4c5ccc(O)c4O[C@H]2[C@@H](O)C=C[C@H]3[C@H]1C5 [Morphine, reference compound]
- ED50 ([1]; Mus musculus, po): 4.5 mg/kg

Molecule: Des Arg^9 --BK: BK1 Agonist (RPPGFSPF; Bradykinin; UniProt P01042 381-388, looked up, fragment) [reference compound]
- Activity (reference compounds, 3H-BK binding) (BK2 receptor; [5]): No Activity

Molecule: DesArg^9 --Leu^8 BK: BK1 Antagonist [reference compound]
- Activity (reference compounds, 3H-BK binding) (BK2 receptor; [5]): No Activity

Molecule: Thi^5,8 --DPhe^7 --BK [reference compound]
- IC50 (BK2 receptor; guinea pig ileum homogenate, 80 pM 3H-BK, 90 min, 25° C., pH 6.8, read-out: IC50 (reference compounds)): 0.069 µM
